These results are taken from patent US7858657B2 (Proix Pharmaceutical Corp., priority 2004, dated 2010).

For assay [1], the system named is OvCaR-3 ovarian. Kind of assay: Antitumor activity of wortmannin analogs, OvCaR-3 ovarian tumor (Table 1). In kind it is in vivo. Particulars: initial tumor vol 120 mm^3; for T/C % (optimal test/control): day 40.
The test system of assay [2] is HT-29 colon. The assay can be described thus: Antitumor activity of wortmannin analogs, HT-29 colon tumor (Table 1). The class given is in vivo. The note with it: for T/C % (optimal test/control): day 16.
Assay [3] can be described thus: Glucose tolerance studies. The note with it: mean ± SE of 4 mice.
Protocol: Glucose Tolerance Studies. Female C5781/6 mice were fasted overnight and administered a single dose of D(+) glucose (1 mg/kg) as a 0.1 g/ml solution po. […] Human recombinant insulin was administered at 0.075:g/kg ip (26) at the same time as glucose administration.
Values are the mean±SE of 4 mice per group.
Another assay deals with T1, p110α/p85α (Bos taurus, UniProt P32871).
T1 construct: purchased Upstate (Charlottesville, Va.)
The assay can be described thus: Inhibition of recombinant PtdIns-3-kinase, [32P]-ATP dependent phosphorylation of PtdIns. In kind it is biochemical, bovine. From the text:
Materials and Methods. Compounds. […] Rabbit purified anti-phosphoSer473-Akt antibody, anti-Akt antibody, antiphospho Tyr1086-EGF-receptor antibody and anti-EGFR antibody were obtained from Cell Signaling Technology (Beverly, Mass.). Human recombinant p110α/p85α, p110β/p85α, p120 (and p110*/p85α PtdIns-3-kinases were obtained from Upstate (Charlottesville, Va.). Metformin hydrochloride was obtained from Spectrum Chemical (Gardena, Calif.), pioglitazone hydrochloride and recombinant human insulin from Sigma Chemical (St. Louis).
Measurement of PtdIns-3-kinase.

The subject of the next assay is A-549 lung. The assay can be described thus: Antitumor activity of cytotoxic drugs alone or combined with PX-866, A-549 lung (Table 2). In kind it is in vivo. The note with it: size 300 mm^3; cisplatin ip 1 mg/kg QD × 5.
Assay [4] deals with HT-29 colon. The assay can be described thus: Antitumor activity of cytotoxic drugs alone or combined with PX-866, HT-29 colon (Table 2). In kind it is in vivo. Particulars: size 150 mm^3; cisplatin ip 2.5 mg/kg Q2D × 3.
A further assay concerns Panc-1 pancreatic. Kind of assay: Antitumor activity of cytotoxic drugs alone or combined with PX-866, Panc-1 pancreatic (Table 2). The note with it: size 75 mm^3; gemcitabine ip 150 mg/kg Q3D × 3. The class given is in vivo.
For assay [5], the system named is OvCaR-3 ovarian. Kind of assay: Antitumor activity of cytotoxic drugs alone or combined with PX-866, OvCar-3 ovarian (Table 2). The class given is in vivo. The note with it: size 110 mm^3; taxol ip 12 mg/kg Q2D × 5.
Assay [6] relates to A-549 human nsc lung cancer xenografts. Kind of assay: Antitumor studies, PX-866 and gefitinib in A-549 xenografts. In kind it is in vivo, scid mice. As to the method:
Antitumor Studies. […] When the tumors reached 100 or 600 mm3 the mice were stratified into groups of 8 animals having approximately equal mean tumor volumes and drug administration was started. […] Animals were weighed weekly and tumor diameters were measured twice weekly at right angles (d short and d long) with electronic calipers and tumor volumes calculated by the formula volume=(dshort)2×(dlong))2. When the tumor reached 2,000 mm3 or more, or became necrotic the animals were euthanized.
In vivo antitumor studies. […] Tumors were allowed to grow to a mean volume of […] before drug treatment was started every other day for 14 doses. Antitumor activity is expressed as the % volume of the treated tumor/control tumor (T/C %) at the end of the dosing period. There were 8 mice in each group and all differences are p<0.01.

The test system of assay [7] is tumor phospho-Akt (A-549 tumor xenografts). The assay can be described thus: Pharmacodynamic studies, tumor phospho-Akt in A-549 xenografts. The class given is in vivo, scid mice. Particulars: gefitinib 75 mg/kg po every other day for 5 days. From the text:
Pharmacodynamic Studies. […] Tumor Akt activity was expressed as the ratio of phospho-Ser473-Akt to total Akt.

The mark [8] stands for this setting: initial tumor vol 170 mm^3, 13 mg/kg/day ip Q1D × 9.
[9] abbreviates: initial tumor vol 180 mm^3, 0.75 mg/kg/day ip Q1D × 9.

Where “and” joins values, the source holds several entries; their conditions need not be identical. Equal entries are not always repeated. Structures can show the parent of a compound that is named as a salt. Marks after values point to notes of the source that are not given here.

T1 sequence (P32871 whole entry): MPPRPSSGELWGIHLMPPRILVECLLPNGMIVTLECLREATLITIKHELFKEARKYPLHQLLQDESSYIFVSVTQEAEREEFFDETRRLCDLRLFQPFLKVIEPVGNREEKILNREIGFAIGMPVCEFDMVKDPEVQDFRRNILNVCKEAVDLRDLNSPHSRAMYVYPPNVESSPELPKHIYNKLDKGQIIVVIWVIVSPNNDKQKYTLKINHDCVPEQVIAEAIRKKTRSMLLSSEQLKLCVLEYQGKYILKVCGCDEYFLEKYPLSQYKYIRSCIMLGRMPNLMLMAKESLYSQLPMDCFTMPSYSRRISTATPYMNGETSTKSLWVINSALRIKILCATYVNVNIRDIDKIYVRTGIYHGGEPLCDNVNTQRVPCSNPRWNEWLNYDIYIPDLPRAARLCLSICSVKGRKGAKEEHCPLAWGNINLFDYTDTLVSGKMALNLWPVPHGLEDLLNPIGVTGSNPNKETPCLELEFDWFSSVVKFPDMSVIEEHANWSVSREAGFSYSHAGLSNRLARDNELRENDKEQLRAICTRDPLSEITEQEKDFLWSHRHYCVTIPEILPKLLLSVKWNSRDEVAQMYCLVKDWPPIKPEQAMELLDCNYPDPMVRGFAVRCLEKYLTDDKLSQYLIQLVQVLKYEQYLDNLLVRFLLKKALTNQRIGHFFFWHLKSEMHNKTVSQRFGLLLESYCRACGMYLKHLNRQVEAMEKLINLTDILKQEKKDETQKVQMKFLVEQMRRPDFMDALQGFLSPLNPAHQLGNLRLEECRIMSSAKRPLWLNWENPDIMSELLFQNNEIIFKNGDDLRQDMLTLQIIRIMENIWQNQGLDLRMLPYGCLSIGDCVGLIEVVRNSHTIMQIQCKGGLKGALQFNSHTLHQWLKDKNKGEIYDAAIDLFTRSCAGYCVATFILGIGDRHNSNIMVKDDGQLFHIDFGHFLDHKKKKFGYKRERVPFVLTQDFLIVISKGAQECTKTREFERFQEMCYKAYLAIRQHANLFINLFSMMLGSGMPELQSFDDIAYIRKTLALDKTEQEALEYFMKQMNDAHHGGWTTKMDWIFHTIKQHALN
T1 sequence (P23727 2-724 partner): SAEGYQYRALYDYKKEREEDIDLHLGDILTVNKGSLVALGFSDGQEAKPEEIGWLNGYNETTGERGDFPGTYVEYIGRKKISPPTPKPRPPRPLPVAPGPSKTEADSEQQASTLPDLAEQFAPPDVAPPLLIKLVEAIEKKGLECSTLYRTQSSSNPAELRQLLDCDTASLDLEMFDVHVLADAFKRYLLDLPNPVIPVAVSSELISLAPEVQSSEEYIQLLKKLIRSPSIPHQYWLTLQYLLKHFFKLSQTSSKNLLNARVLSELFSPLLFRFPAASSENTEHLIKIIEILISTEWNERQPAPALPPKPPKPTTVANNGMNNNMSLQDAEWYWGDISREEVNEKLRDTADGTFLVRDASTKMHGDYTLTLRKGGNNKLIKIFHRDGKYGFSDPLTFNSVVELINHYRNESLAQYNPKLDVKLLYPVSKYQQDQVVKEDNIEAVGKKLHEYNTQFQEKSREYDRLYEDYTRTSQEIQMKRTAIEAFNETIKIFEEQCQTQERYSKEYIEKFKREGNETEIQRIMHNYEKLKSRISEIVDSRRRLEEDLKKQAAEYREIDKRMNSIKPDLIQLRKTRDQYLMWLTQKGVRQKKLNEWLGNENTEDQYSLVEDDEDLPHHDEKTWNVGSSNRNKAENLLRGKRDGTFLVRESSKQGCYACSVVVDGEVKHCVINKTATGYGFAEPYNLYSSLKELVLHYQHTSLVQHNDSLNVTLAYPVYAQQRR

`COC[C@@H]1OC(=O)/C(=C/N2CCCC2)C2=C(O)C(=O)C3=C([C@H](OC(C)=O)C[C@]4(C)C(=O)CC[C@H]34)[C@]21C` [PX-867, Acetic acid 6-hydroxy-1α-methoxymethyl-10β,13β-dimethyl-3,7,17-trioxo-4-pyrrolidin-1-yl-methylene-1,3,4,7,10,11β,12,13,14α,15,16,17-dodecahydro-2-oxa-cyclopenta[α]phenanthren-11-yl]: in the assay with OvCaR-3 ovarian [1] (13 mg/kg/day ip Q1D × 9), the “Growth Delay” value worked out at 6 days, the Log10 cell kill is recorded as 0.6 and the “T/C % (optimal test/control)” value is given as 41 (40) %. For the same compound, in the assay on HT-29 colon [2] (setting [8]), the “Growth Delay” value was 0 days, the Log10 cell kill worked out at 0 and the “T/C % (optimal test/control)” value is 80 (16) %.

For the compound `CN(C)C(=N)N=C(N)N` [Metformin, Metformin hydrochloride, reference compound], the “plasma glucose AUC0-180 min” value is 367 ± 46 mg·min/mL in [3] (Metformin 250 mg/kg IP QD × 5, without PX-866); 537 ± 4^b mg · min · ml^−1 in [3] (Metformin 250 mg/kg IP QD × 5 with PX-866 10 mg/kg po, hydrochloride); “had no effect” in assay [3] (Metformin 250 mg/kg IP QD × 5 with PX-866 10 mg/kg po, listed as metformin, hydrochloride).

For orientation: IC50 means the concentration that inhibits the measured activity by half. Take `COC[C@H]1OC(=O)c2coc3c2[C@@]1(C)C1=C(C3=O)[C@@H]2CCC(=O)[C@@]2(C)C[C@H]1OC(C)=O` [wortmannin, reference compound]: the IC50 at p110α/p85α was determined as 4 nM. Also, in the assay on OvCaR-3 ovarian [1] (0.75 mg/kg/day ip Q1D × 9), the “Growth Delay” value was 5 days, the Log10 cell kill amounted to 0.5 and the “T/C % (optimal test/control)” value was 47 (40) %. Further, in the assay with HT-29 colon [2] (setting [9]), the “Growth Delay” value was found to be 5 days, the Log10 cell kill is on record as 0.3 and the “T/C % (optimal test/control)” value is given as 36 (16) %.

In the case of `N.N.[Cl][Pt][Cl]` [cisplatin, reference compound], in the assay with A-549 lung, the “Alone Growth delay days” value amounted to 1 days, the “Alone TGI %” value worked out at 16% and the “Alone log cell kill” value came out at 0.1. Moreover, in the assay with HT-29 colon [4], the “Alone Growth delay days” value was found to be 0 days, the “Alone TGI %” value amounted to 11% and the “Alone log cell kill” value was 0.

Turning to `Nc1ccn([C@@H]2O[C@H](CO)[C@@H](O)C2(F)F)c(=O)n1` [gemcitabine, reference compound], in the assay on Panc-1 pancreatic, the “Alone Growth delay days” value worked out at 7 days, the “Alone TGI %” value was 38% and the “Alone log cell kill” value came out at 0.2.

On to `CC(=O)O[C@H]1C(=O)[C@@]2(C)[C@H]([C@H](OC(=O)c3ccccc3)[C@]3(O)C[C@H](OC(=O)[C@H](O)[C@@H](NC(=O)c4ccccc4)c4ccccc4)C(C)=C1C3(C)C)[C@]1(OC(C)=O)CO[C@@H]1C[C@@H]2O` [taxol, paclitaxel, reference compound], for which, in the assay on OvCaR-3 ovarian [5], the “Alone Growth delay days” value is recorded as 13 days, the “Alone TGI %” value is listed as 58% and the “Alone log cell kill” value is 1.0.

As for `COc1cc2ncnc(Nc3ccc(F)c(Cl)c3)c2cc1OCCCN1CCOCC1` [gefitinib, reference compound], in assay [6] (administered long term, single agent (discussion)), the “tumor T/Cs” value is on record as “around 50%”. In addition, the “Tumor T/C %” value in assay [6] (gefitinib po 75 mg/kg QOD × 14, 100 mm3 tumors, end of dosing period, 75 mg/kg) is 51% and 50.8%. In addition, the “effect upon tumor phospho-Akt” value in assay [7] was “no significant effect”.

With `CCc1ccc(CCOc2ccc(CC3SC(=O)NC3=O)cc2)nc1` (stereo not drawn) [Pioglitazone, pioglitazone hydrochloride, reference compound], the “plasma glucose AUC0-180 min” value was 274 ± 3 mg·min/mL in assay [3] (Pioglitazone 10 mg/kg ip QD × 7, without PX-866) and 340 ± 39^c mg · min · ml^−1 in [3] (Pioglitazone 10 mg/kg ip QD × 7 with PX-866 10 mg/kg po, hydrochloride).

Regarding “Insulin: recombinant human insulin from Sigma Chemical”, the “plasma glucose AUC0-180 min” value in assay [3] (Insulin 0.075 μ/kg ip with PX-866 10 mg/kg po) was 64 ± 5^ mg · min · ml^−1; in [3] (Insulin 0.075 μ/kg ip with PX-866 10 mg/kg po, listed as insulin), “overcame the increase in plasma glucose caused by PX-866”; in assay [3] (Insulin 0.075 μ/kg ip, without PX-866) it was 64 ± 25 mg·min/mL.
